Data published in the supplement of paper PMC10307832.

Experiments:
Assay in all cases: relative viability (nuclei count vs DMSO), 5 days (fraction); higher = more cells survive
QS11 + Foretinib = compound: C1CC2=C(C1)C=C(C=C2)OC3=NC(=C4C(=N3)N(C=N4)CC5=CC=C(C=C5)C6=CC=CC=C6)N[C@@H](CC7=CC=CC=C7)CO [QS11] + COc1cc2c(Oc3ccc(NC(=O)C4(C(=O)Nc5ccc(F)cc5)CC4)cc3F)ccnc2cc1OCCCN1CCOCC1 [Foretinib] (partner 0.25 µM)
Method in brief: (§1)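 Medians of duplicate plates are given as relative viability. That measure is the nuclei count in treated wells divided by the count in vehicle wells. Counts were taken on 4× images of lung cancer cell lines in 1536-well plates, 5 days after pin-tool dosing the day after seeding with one drug alone or a fixed anchor-drug dose plus five library-drug doses (not always all listed) in √10 steps.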

AZ628 + Pictilisib = compound: CC1=C(C=C(C=C1)NC(=O)C2=CC(=CC=C2)C(C)(C)C#N)NC3=CC4=C(C=C3)N=CN(C4=O)C [AZ628] + CS(=O)(=O)N1CCN(Cc2cc3nc(-c4cccc5[nH]ncc45)nc(N4CCOCC4)c3s2)CC1 [Pictilisib] (partner 1 µM)
Method in brief: as §1

AZ628 + Tozasertib = compound: CC1=C(C=C(C=C1)NC(=O)C2=CC(=CC=C2)C(C)(C)C#N)NC3=CC4=C(C=C3)N=CN(C4=O)C [AZ628] + Cc1cc(Nc2cc(N3CCN(C)CC3)nc(Sc3ccc(NC(=O)C4CC4)cc3)n2)n[nH]1 [Tozasertib] (partner 0.1 µM)
Method in brief: as §1

AZ628 + Decitabine = compound: CC1=C(C=C(C=C1)NC(=O)C2=CC(=CC=C2)C(C)(C)C#N)NC3=CC4=C(C=C3)N=CN(C4=O)C [AZ628] + Nc1ncn([C@H]2C[C@H](O)[C@@H](CO)O2)c(=O)n1 [Decitabine] (partner 2 µM)
Method in brief: as §1

LCLC-97TM1
relative viability (QS11 + Foretinib; first compound 0.08 µM): 0.957
relative viability (QS11 + Foretinib; first compound 0.253 µM): 0.949
relative viability (QS11 + Foretinib; first compound 2.53 µM): 0.934
relative viability (QS11 + Foretinib; first compound 8 µM): 0.931
relative viability (AZ628 + Pictilisib; first compound 0.08 µM): 0.201
relative viability (AZ628 + Pictilisib; first compound 0.253 µM): 0.183
relative viability (AZ628 + Pictilisib; first compound 0.8 µM): 0.203
relative viability (AZ628 + Pictilisib; first compound 2.53 µM): 0.141
relative viability (AZ628 + Pictilisib; first compound 8 µM): 0.12
relative viability (AZ628 + Tozasertib; first compound 0.08 µM): 0.239
relative viability (AZ628 + Tozasertib; first compound 0.253 µM): 0.202
relative viability (AZ628 + Tozasertib; first compound 0.8 µM): 0.235
relative viability (AZ628 + Tozasertib; first compound 2.53 µM): 0.211
relative viability (AZ628 + Tozasertib; first compound 8 µM): 0.167
relative viability (AZ628 + Decitabine; first compound 0.08 µM): 0.276
relative viability (AZ628 + Decitabine; first compound 0.253 µM): 0.265
relative viability (AZ628 + Decitabine; first compound 0.8 µM): 0.257
relative viability (AZ628 + Decitabine; first compound 2.53 µM): 0.199
relative viability (AZ628 + Decitabine; first compound 8 µM): 0.13
